Like-named read-outs stand apart in the source and are kept apart here.
What was measured:
[1] = target: T1, PBP3 (penicillin-binding protein 3, PBP3*) (Streptococcus pneumoniae, UniProt Q8DQ99); assay: competitive enzyme-linked assay on microtiter plate, optical readout; settings: competition with ampicillin-biotin conjugate
T1 construct: gene dacA; soluble truncated PBP3 (Gly15-Lys394), N-terminal hexa-His tag kept, synthetic gene, expressed in E. coli BL21*(DE3) pLysS, Ni-NTA purified; captured on anti-His antibody
T1 sequence (Q8DQ99 15-394): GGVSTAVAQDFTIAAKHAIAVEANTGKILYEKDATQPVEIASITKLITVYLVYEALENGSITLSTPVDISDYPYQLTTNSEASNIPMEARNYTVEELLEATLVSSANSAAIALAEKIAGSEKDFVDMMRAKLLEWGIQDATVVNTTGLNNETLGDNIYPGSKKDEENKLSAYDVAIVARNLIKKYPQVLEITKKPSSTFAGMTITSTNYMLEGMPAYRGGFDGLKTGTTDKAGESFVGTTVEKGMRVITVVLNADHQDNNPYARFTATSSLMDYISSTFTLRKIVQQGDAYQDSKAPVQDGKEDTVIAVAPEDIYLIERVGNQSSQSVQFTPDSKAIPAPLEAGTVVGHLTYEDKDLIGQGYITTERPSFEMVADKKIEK

[2] = target: T1, PBP3 (penicillin-binding protein 3, PBP3*); assay: competitive enzyme-linked assay on electrochemical microfluidic chip, avidin-glucose oxidase readout
Source text: competitive enzyme-linked assay on electrochemical microfluidic chip, avidin-glucose oxidase readout on PBP3 (penicillin-binding protein 3, PBP3*)

**Q.** For `CC1(C)S[C@@H]2[C@H](NC(=O)[C@H](N)c3ccccc3)C(=O)N2[C@H]1C(=O)O` [ampicillin], which “competitive enzyme-linked assay on microtiter plate, optical readout” value [1] is on record?
**A.** confirmed via the optical quantification of ampicillin on a microtiter plate

**Q.** How did the IC50 ([2]; read-out: Cefuroxime (converted)) turn out when `CO/N=C(\C(=O)N[C@@H]1C(=O)N2C(C(=O)O)=C(COC(N)=O)CS[C@H]12)c1ccco1` [cefuroxime] was run?
**A.** 0.0261 µM

**Q.** How did the IC50 ([2]; read-out: Cefazolin (converted)) turn out when `Cc1nnc(SCC2=C(C(=O)O)N3C(=O)[C@@H](NC(=O)Cn4cnnn4)[C@H]3SC2)s1` [cefazolin] was run?
**A.** 0.0192 µM

**Q.** For `CCN1CCN(C(=O)N[C@@H](C(=O)N[C@@H]2C(=O)N3[C@@H]2SC(C)(C)[C@@H]3C(=O)O)c2ccccc2)C(=O)C1=O` [piperacillin], which IC50 ([2]; read-out: Piperacillin (converted)) is on record?
**A.** 0.0355 µM

From paper PMC5466632, “Clinical on-site monitoring of ß-lactam antibiotics for a personalized antibiotherapy” (Scientific Reports, 2017)
